The Tmax is the time at which the peak concentration occurs. A word on the solubility: it is how much of the substance goes into solution per volume. Lower therefore signals little dissolved substance. As usually defined, the bioavailability is the share of a dose that reaches the circulation, judged against a reference dose that is usually intravenous.

Values after ≈ are worked out from the molar mass of the structure shown. “Also recorded” adds a separate entry of the source. Like-named read-outs stand apart in the source and are kept apart here.

This is an account of results in patent US9174966B2, “Crystalline forms of 6-(1H-imidazol-1-yl)-2-phenylquinazoline” (ROTTAPHARM S.P.A., priority 2009, dated 2015).

Data set [1] can be described thus: BCS (Biopharmaceutical Classification System) classification. The following applies: high permeability, low solubility. It is filed as physicochemical. An excerpt:
To take these two factors into account, a classification of drug products was introduced, known as BCS (Biopharmaceutical Classification System) (G L Amidon et al., Pharm. Res. 1995, 12: 413-419). Since it is endowed with good permeability and low solubility, 6-(1H-imidazol-1-yl)-2-phenylquinazoline falls into class II (high permeability, low solubility) of the BCS system. For the drug products of this class, the solubility is fundamental in determining their absorption. The preparation of pharmaceutically acceptable salts generally represents a means for increasing the solubility of sparingly soluble products, and, in the case of products endowed with good permeability, is a suitable means for increasing their bioavailability.

A short description of data set [2]: Pharmacokinetics in rats, oral versus intravenous administration. It counts as in vivo. The following applies: for clearance / half-life / Tmax / bioavailability: rat, blood; for half-life: read-out: T½; for Tmax: read-out: Tmax (converted); for bioavailability: read-out: F (bioavailability). Here is the method: The samples are analysed by HPLC-MS to determine the content of 6-(1H-imidazol-1-yl)-2-phenylquinazoline, using diphenylhydramine hydrochloride as internal standard. The pharmacokinetic parameters measured are summarized hereinbelow: it is noted that, despite the fact that the polymorph under consideration is of low solubility, the bioavailability (F %) is entirely acceptable.
The pharmacokinetic parameters measured are summarized hereinbelow: it is noted that the salt under consideration has optimum bioavailability (F %). […]

The nature of data set [3]: Stability to mechanical stress (milling, XRPD). The following applies: Retsch MM 200 mill, 50 Hz, 5 min. It is filed as physicochemical. Here is the method: 6-(1H-Imidazol-1-yl)-2-phenylquinazoline, polymorph A, was subjected to milling by means of a Retsch MM 200 mill, at 50 Hz for 5 min., and the product thus obtained was analysed by XRPD.
6-(1H-Imidazol-1-yl)-2-phenylquinazoline succinate form A, was subjected to milling by means of a Retsch MM 200 mill, at 50 Hz for 5 min., and the product thus obtained was subjected to XRPD analysis.
6-(1H-Imidazol-1-yl)-2-phenylquinazoline L-tartrate dihydrate, form A, was subjected to milling by means of a Retsch MM 200 mill, at 50 Hz for 5 min., and the product thus obtained was subjected to XRPD analysis.
6-(1H-Imidazol-1-yl)-2-phenylquinazoline maleate, form A, was subjected to milling by means of a Retsch MM 200 mill, at 50 Hz for 5 min., and the product thus obtained was subjected to XRPD analysis.

The next data set in a line: physchem. The following applies: 37 °C, pH 2, aqueous buffer, thermodynamic from solid.
A short description of data set [4]: Thermal stability of the crystalline form (XRPD). As to conditions: XRPD.
A short description of data set [5]: Solubility in aqueous solution of NaCl 0.9% (UV absorbance at 260 nm). It counts as physicochemical. The following applies: aqueous solution of NaCl 0.9%, 37 °C, saline or isotonic, thermodynamic from solid, aqueous NaCl 0.9%, stirred 500 rpm, 24 hours at 37° C. Here is the method:
The solubility is 0.6 mg/mL. […]
The sample of 6-(1H-imidazol-1-yl)-2-phenylquinazoline phosphate, form A, is stirred in an aqueous solution of NaCl 0.9%, at 500 rpm, so as to obtain a suspension (50 mg in 2 mL), for 24 hours at 37° C.
(§1) The sample of 6-(1H-imidazol-1-yl)-2-phenylquinazoline phosphate, form A, is stirred in an aqueous solution of NaCl 0.9%, at 500 rpm, so as to obtain a suspension (70 mg in 2 mL), for 24 hours at 37° C. […] The dissolution rate is measured by adding 2 mg of product to 40 mL of water at 37° C., stirring at 500 rpm, and measuring the absorbance at 260 nm every 0.05 min; the dissolution rate is found to be 1.9×10^−4 gr/min.

Data set [6] in a line: Dissolution rate in water at 37° C. It counts as physicochemical. The following applies: 2 mg of product in 40 mL of water at 37° C., 500 rpm, absorbance at 260 nm. Here is the method: as §1
A short description of data set [7]: Stability to moisture, DVS analysis (Differential Vapour Sorption). It counts as physicochemical. As to conditions: 25° C., hydration/dehydration cycle. Here is the method: The sample placed on a microbalance is subjected, in a chamber of controlled humidity, at 25° C., to a cycle of hydration (increasing humidity, red line) and of dehydration (decreasing humidity, blue line).
The sample of 6-(1H-imidazol-1-yl)-2-phenylquinazoline succinate form A was subjected to DVS analysis (as described in Example 32).
The sample of 6-(1H-imidazol-1-yl)-2-phenylquinazoline L-tartrate dihydrate, form A, was subjected to DVS analysis.
The sample of 6-(1H-imidazol-1-yl)-2-phenylquinazoline maleate, form A, was subjected to DVS analysis.

The nature of data set [8]: Hygroscopicity noted for the isolated crystalline product. It counts as physicochemical. The following applies: as noted in the preparation example.
The mark [9] stands for this setting: OS 10 mg/Kg compared with IV 5 mg/kg.
Where [10] appears, read: po, 10 mg/kg, OS (oral), 10 mg/Kg.
Setting [11] is: 90° C., 12 hours (or at least 12 hours).

Procedure for physchem: A sample of 6-(1H-imidazol-1-yl)-2-phenylquinazoline, polymorph A (150 mg), is stirred in a phosphate buffer solution at pH 7.4 (8 mL), at 500 rpm, so as to obtain a suspension, for 24 hours at 37° C. The suspension is then filtered and the concentration of the dissolved product is measured by reading the UV absorbance at 260 nm. […] A sample of 6-(1H-imidazol-1-yl)-2-phenylquinazoline, polymorph A (250 mg), is stirred in a phosphate buffer solution at pH 2 (2 mL), at 500 rpm, so as to obtain a suspension, for 24 hours at 37° C. The suspension is then filtered and the concentration of the dissolved product is measured by reading the UV absorbance at 260 nm.
A sample of 6-(1H-imidazol-1-yl)-2-phenylquinazoline, form B, (50 mg), is stirred in a phosphate buffer solution at pH 7.4 (2 mL), at 500 rpm, so as to obtain a suspension, for 24 hours at 37° C. The suspension is then filtered and the concentration of the dissolved product is measured by reading the UV absorbance at 260 nm.
A sample of 6-(1H-imidazol-1-yl)-2-phenylquinazoline, form C (30 mg), is stirred in a phosphate buffer solution at pH 7.4 (2 mL), at 500 rpm, so as to obtain a suspension, for 24 hours at 37° C. The suspension is then filtered and the concentration of the dissolved product is measured by reading the UV absorbance at 260 nm. […]

`c1ccc(-c2ncc3cc(-n4ccnc4)ccc3n2)cc1` [6-(1H-imidazol-1-yl)-2-phenylquinazoline]: the BCS class result in data set [1] was “class II”.
Regarding `c1ccc(-c2ncc3cc(-n4ccnc4)ccc3n2)cc1` [polymorph A, 6-(1H-imidazol-1-yl)-2-phenylquinazoline], the V in data set [2] (IV, 5 mg/kg) is 1.28 L/kg; in data set [2] (OS (oral), 10 mg/Kg), 1.60 L/kg. The “F (bioavailability)” value in data set [2] (setting [9]) worked out at 50.3%. Moreover, the CL in data set [2] (OS (oral), 10 mg/Kg) came out at 22 mL/min/kg. Further, in [2] (iv, 5 mg/kg), the clearance was determined as 21 mL/min/kg. Also, the half-life is 42.1 min in data set [2] (iv, 5 mg/kg, IV, 5 mg/kg) and 45.4 min in data set [2] (setting [10]). Moreover, the Tmax in data set [2] (setting [10]) was 100 min. Also, the stability to milling entry in [3] is “without any contamination with other crystalline forms, and no appreciable formation of amorphous material”. Moreover, in the data set “physchem”, the concentration in solution (solubility at 24 h) was 1800 µg/mL (≈ 6.61 mM). Also, the “thermal stability of crystalline form” value is listed as “stable” in data set [4] (40° C., RH 85%, 5 days (at least 5 days for polymorph A)) and “stable” in data set [4] (setting [11]).
As to `O=C(O)CCC(=O)O.c1ccc(-c2ncc3cc(-n4ccnc4)ccc3n2)cc1` [succinate form A, 6-(1H-imidazol-1-yl)-2-phenylquinazoline succinate], in data set [5], the solubility at 24 h came to 600 µg/mL. The dissolution rate in data set [6] is 3.53×10^−5 gr/min. The V in data set [2] (IV, 5 mg/kg) is 1.1 L/kg; in data set [2] (OS (oral), 10 mg/Kg), 3.74 L/kg. This compound also gave a CL in data set [2] (OS (oral), 10 mg/Kg) of 19 mL/min/kg. Besides, the bioavailability in [2] (setting [9]) came to 65%. Moreover, the clearance in data set [2] (iv, 5 mg/kg) came out at 18 mL/min/kg. For the same compound, the half-life in [2] (iv, 5 mg/kg, IV, 5 mg/kg) worked out at 48.9 min; in data set [2] (setting [10]) it was 48.6 min. Moreover, the Tmax in data set [2] (setting [10]) was 60 min. Further, the stability to milling entry in data set [3] is “has not undergone any changes of crystalline form and no presence of amorphous product is revealed”. The “hygroscopicity (DVS)” value in data set [7] (succinate) is “not entirely hygroscopic; also recorded: only at about 90% RH is there a significant minimum absorption of water”. Besides, in data set [8] (succinate), the “hygroscopicity of the isolated product” value is given as “non-hygroscopic”. Moreover, the “thermal stability of crystalline form” value in [4] (40° C., RH 85%, 7 days) is “stable”; in data set [4] (setting [11]) it was “stable”.
As to `O=C(O)/C=C\C(=O)O.c1ccc(-c2ncc3cc(-n4ccnc4)ccc3n2)cc1` [maleate form A, 6-(1H-imidazol-1-yl)-2-phenylquinazoline maleate], the solubility at 24 h in data set [5] is 7900 µg/mL. Further, the dissolution rate in data set [6] is reported as 1.45×10^−3 gr/min. For the same compound, the V in data set [2] (IV, 5 mg/kg) came to 1.3 L/kg; in [2] (OS (oral), 10 mg/Kg), 1.90 L/kg. The compound also gave a CL in data set [2] (OS (oral), 10 mg/Kg) of 16 mL/min/kg. For the same compound, the bioavailability in data set [2] (setting [9]) worked out at 100%. Moreover, the clearance in data set [2] (iv, 5 mg/kg) worked out at 22 mL/min/kg. The half-life in data set [2] (iv, 5 mg/kg, IV, 5 mg/kg) came to 45.6 min; in [2] (setting [10]) it was 45 min. Moreover, in data set [2] (setting [10]), the Tmax is 60 min. The stability to milling entry in data set [3] was “has not undergone any changes of crystalline form, but a slight increase in the presence of amorphous product is revealed, which recrystallizes within a few hours on standing”. In data set [7] (maleate), the “hygroscopicity (DVS)” value is recorded as “not hygroscopic in the range 0-85% RH; also recorded: not particularly hygroscopic even at values of greater than 85% RH”. Also, the “hygroscopicity of the isolated product” value in data set [8] was “non-hygroscopic”. For the same compound, the “thermal stability of crystalline form” value in data set [4] (40° C., 70% RH, 7 days) is recorded as “stable”; in data set [4] (setting [11]) it was “stable”.
